Read-outs that look alike come from different tables or passages of the source.

The target in one experiment is histamine receptor H1 (Homo sapiens, UniProt P35367). As to the kind of experiment: Histamine H1 radioligand binding ([3H]Pyrilamine). As to conditions: read-out: Histamine Binding (1 μM) H1, percent inhibition of specific binding, 1 μM. As to the method: To evaluate in radioligand binding assays the activity of compounds of the invention, human recombinant histamine H1 receptor expressed in Chinese hamster ovary (CHO) cells (De Backer, M. D. et al., Biochem. Biophys. Res. Comm. 197(3):1601, 1993) in a modified Tris-HCl buffer (50 mM Tris-HCl, pH 7.4, 2 mM MgCl2, 100 mM NaCl, 250 mM Sucrose) was used. Compounds of the invention were incubated with 1.2 nM [^3H]Pyrilamine for 180 min. at 25° C. Non-specific binding was estimated in the presence of 1 μM pyrilamine. Receptor proteins were filtered and washed, the filters were then counted to determine [^3H]Pyrilamine specifically bound. Compounds were screened at 1 μM or lower, using 1% DMSO as vehicle. Biochemical assay results are presented as the percent inhibition of specific binding in Table 8.
histamine receptor H1, sequence (P35367 whole entry): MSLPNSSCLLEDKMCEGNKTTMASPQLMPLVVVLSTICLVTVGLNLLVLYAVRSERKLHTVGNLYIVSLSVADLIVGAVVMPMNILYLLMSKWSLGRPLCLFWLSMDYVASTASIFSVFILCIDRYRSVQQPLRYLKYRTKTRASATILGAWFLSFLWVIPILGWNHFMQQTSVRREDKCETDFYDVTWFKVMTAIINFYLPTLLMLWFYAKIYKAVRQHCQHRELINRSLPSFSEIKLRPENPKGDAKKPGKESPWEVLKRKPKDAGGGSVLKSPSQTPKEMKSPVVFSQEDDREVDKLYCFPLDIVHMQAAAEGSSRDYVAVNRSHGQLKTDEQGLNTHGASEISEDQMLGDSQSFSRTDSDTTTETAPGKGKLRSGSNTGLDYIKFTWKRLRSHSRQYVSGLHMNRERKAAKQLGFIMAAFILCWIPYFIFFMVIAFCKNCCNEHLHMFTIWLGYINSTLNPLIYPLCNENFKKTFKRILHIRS

Experiment [1] has as its target human dopamine D2L receptor (Homo sapiens, UniProt P14416). In words: Dopamine D2L radioligand binding ([3H]Spiperone). As to conditions: compound at 1 μM. The source says:
Non-specific binding was estimated in the presence of […] Haloperidol. Receptor proteins were filtered and washed, the filters were then counted to determine [^3H]Spiperone specifically bound. […] Biochemical assay results are presented as the percent inhibition of specific binding in Table 9.

Where [2] appears, read: percent inhibition of specific binding, read-out: Inhibition of ligand binding, Dopamine D2L.
Setting [3] is: […] [3H]Spiperone, read-out: Inhibition of ligand binding, Dopamine D2L (percent inhibition of specific binding).

human dopamine D2L receptor, sequence (P14416 whole entry): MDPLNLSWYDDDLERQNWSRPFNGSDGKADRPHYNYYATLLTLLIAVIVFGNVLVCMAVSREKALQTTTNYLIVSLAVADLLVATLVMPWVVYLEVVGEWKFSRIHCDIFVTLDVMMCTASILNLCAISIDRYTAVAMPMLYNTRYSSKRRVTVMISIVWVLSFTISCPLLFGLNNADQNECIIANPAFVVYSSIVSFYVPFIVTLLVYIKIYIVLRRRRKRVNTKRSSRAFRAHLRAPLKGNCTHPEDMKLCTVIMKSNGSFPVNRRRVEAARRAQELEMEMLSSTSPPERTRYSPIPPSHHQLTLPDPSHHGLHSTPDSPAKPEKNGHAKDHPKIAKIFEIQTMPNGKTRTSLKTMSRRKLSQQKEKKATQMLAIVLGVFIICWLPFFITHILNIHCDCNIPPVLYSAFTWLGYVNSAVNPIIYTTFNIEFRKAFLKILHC

Turning to `C/C(=C\n1c2c(c3cc(C)ccc31)CN(CCCO)CC2)c1ccncc1` [Compound 288, (E)-3-(8-methyl-5-(2-(pyridin-4-yl)prop-1-enyl)-3,4-dihydro-1H-pyrido[4,3-b]indol-2(5H)-yl)propan-1-ol], the inhibition at 1 µM was determined as 25% at histamine receptor H1 and 92% in experiment [1] (setting [2]).

With `CNC(=O)c1cccc(/C(C)=C/n2c3c(c4cc(C)ccc42)CN(C)CC3)c1` [Compound No. 472, (E)-3-(1-(2,8-dimethyl-3,4-dihydro-1H-pyrido[4,3-b]indol-5(2H)-yl)prop-1-en-2-yl)-N-methylbenzamide], the inhibition at 1 µM on histamine receptor H1 came out at 21%; in experiment [1] (setting [3]) it was 53%.

As for `Cc1ccc2c(c1)c1c(n2C#Cc2cncn2C)CCN(C)C1` [Compound No. 497, 2,8-dimethyl-5-((1-methyl-1H-imidazol-5-yl)ethynyl)-2,3,4,5-tetrahydro-1H-pyrido[4,3-b]indole], the inhibition at 1 µM on histamine receptor H1 worked out at 17%; in experiment [1] (setting [3]), 14%.

In the case of `C/C(=C\n1c2c(c3cc(Cl)ccc31)CN(C)CC2)C1CCCCC1` [Compound 367, (E)-8-chloro-5-(2-cyclohexylprop-1-enyl)-2-methyl-2,3,4,5-tetrahydro-1H-pyrido[4,3-b]indole], the inhibition at 1 µM came out at 64% on histamine receptor H1 and 48% in experiment [1] (setting [3]).

For `C/C(=C\n1c2c(c3cc(C)ccc31)CN(C)CC2)c1cnc(C)cn1` [compound 386, (E)-2,8-dimethyl-5-(2-(5-methylpyrazin-2-yl)prop-1-enyl)-2,3,4,5-tetrahydro-1H-pyrido[4,3-b]indole], the inhibition at 1 µM at histamine receptor H1 came to 8%; in experiment [1] (setting [3]) it was 25%.

For `C/C(=C/n1c2c(c3cc(Cl)ccc31)CN(C)CC2)c1ccncc1C` [compound 417, (Z)-8-chloro-2-methyl-5-(2-(3-methylpyridin-4-yl)prop-1-enyl)-2,3,4,5-tetrahydro-1H-pyrido[4,3-b]indole], the results for the inhibition at 1 µM (at histamine receptor H1; in experiment [1] (setting [3])) were 48% and 87%, respectively.

On to `C/C(=C\n1c2c(c3cc(C)ccc31)CN(C)CC2)c1cnccn1` [Compound 287, (E)-2,8-dimethyl-5-(2-(pyrazin-2-yl)prop-1-enyl)-2,3,4,5-tetrahydro-1H-pyrido[4,3-b]indole], for which the inhibition at 1 µM came to 33% at histamine receptor H1 and 72% in experiment [1] (setting [2]).

Take `C/C(=C\n1c2c(c3cc(NCCO)ccc31)CN(C)CC2)c1ccncc1` [compound 449, (E)-2-(2-methyl-5-(2-(pyridin-4-yl)prop-1-enyl)-2,3,4,5-tetrahydro-1H-pyrido[4,3-b]indol-8-ylamino)ethanol]: the figures for the inhibition at 1 µM (at histamine receptor H1; in experiment [1] (setting [3])) were -7% and 59%, respectively.

Take `C/C(=C/n1c2c(c3cc(C)ccc31)CN(C)CC2)c1cccc(C(=O)N(C)C)c1` [Compound No. 458, (Z)-3-(1-(2,8-dimethyl-3,4-dihydro-1H-pyrido[4,3-b]indol-5(2H)-yl)prop-1-en-2-yl)-N,N-dimethylbenzamide]: the inhibition at 1 µM on histamine receptor H1 came out at 56%; in experiment [1] (setting [3]) it was 15%.

Turning to `COc1ccc(/C(C)=C/n2c3c(c4cc(C)ccc42)CN(C)CC3)cn1` [compound 441, (E)-5-(2-(6-methoxypyridin-3-yl)prop-1-enyl)-2,8-dimethyl-2,3,4,5-tetrahydro-1H-pyrido[4,3-b]indole], the figures for the inhibition at 1 µM (on histamine receptor H1; in experiment [1] (setting [3])) were 91% and 64%, respectively.

With `C/C(=C\n1c2c(c3cc(C)ccc31)CN(C)CC2)C1CCCCC1` [Compound 320, (E)-5-(2-cyclohexylprop-1-enyl)-2,8-dimethyl-2,3,4,5-tetrahydro-1H-pyrido[4,3-b]indole], the results for the inhibition at 1 µM (on histamine receptor H1; in experiment [1] (setting [2])) were 65% and 61%, respectively.

For `C/C(=C\n1c2c(c3cc(C)ccc31)CN(C)CC2)c1cccs1` [Compound 294, (E)-2,8-dimethyl-5-(2-(thiophen-2-yl)prop-1-enyl)-2,3,4,5-tetrahydro-1H-pyrido[4,3-b]indole], the inhibition at 1 µM (on histamine receptor H1; in experiment [1] (setting [2])) was 83% throughout.

For `C/C(=C\n1c2c(c3cc(C)ccc31)CN(CCc1ccccc1)CC2)c1ccncc1` [compound 412, (E)-8-methyl-2-phenethyl-5-(2-(pyridin-4-yl)prop-1-enyl)-2,3,4,5-tetrahydro-1H-pyrido[4,3-b]indole], the figures for the inhibition at 1 µM (on histamine receptor H1; in experiment [1] (setting [3])) were 27% and 94%, respectively.

Turning to `CN1CCc2c(c3cc(Cl)ccc3n2/C=C/c2ccccc2)C1` [compound 415, (E)-8-chloro-2-methyl-5-styryl-2,3,4,5-tetrahydro-1H-pyrido[4,3-b]indole], the results for the inhibition at 1 µM (on histamine receptor H1; in experiment [1] (setting [3])) were 97% and 95%, respectively.

As to `Cc1ccc2c(c1)c1c(n2C#Cc2ccccc2)CCN(C)C1` [Compound No. 490, 2,8-dimethyl-5-(phenylethynyl)-2,3,4,5-tetrahydro-1H-pyrido[4,3-b]indole], the inhibition at 1 µM amounted to 18% on histamine receptor H1 and 74% in experiment [1] (setting [3]).

As for `C=C(Cn1c2c(c3cc(Cl)ccc31)CN(C)C(C)C2)c1ccncc1` (stereo not shown) [Compound 365, 8-chloro-2,3-dimethyl-5-(2-(pyridin-4-yl)allyl)-2,3,4,5-tetrahydro-1H-pyrido[4,3-b]indole], the inhibition at 1 µM at histamine receptor H1 is 92%; in experiment [1] (setting [3]), 49%.

As to `C/C(=C\n1c2c(c3cc(C)ccc31)CN(C1CC1)CC2)c1ccncc1` [Compound 292, (E)-2-cyclopropyl-8-methyl-5-(2-(pyridin-4-v)prop-1-enyl)-2,3,4,5-tetrahydro-H-pyrido[4,3-b]indole], the inhibition at 1 µM at histamine receptor H1 is 11%; in experiment [1] (setting [2]), 71%.

Consider `Cc1ccc2c(c1)c1c(n2CC(C)(O)c2ccncc2)CCN(C2CC2)C1` (stereo not shown) [Compound 342, 1-(2-cyclopropyl-8-methyl-3,4-dihydro-1H-pyrido[4,3-b]indol-5(2H)-yl)-2-(pyridin-4-yl)propan-2-ol], for which the inhibition at 1 µM was found to be 48% on histamine receptor H1 and 11% in experiment [1] (setting [2]).

In the case of `CNC(=O)c1ccc(/C(F)=C/n2c3c(c4cc(C)ccc42)CN(C)CC3)cc1F` [compound 424, (Z)-4-(2-(2,8-dimethyl-3,4-dihydro-1H-pyrido[4,3-b]indol-5(2H)-yl)-1-fluorovinyl)-2-fluoro-N-methylbenzamide], the values for the inhibition at 1 µM (on histamine receptor H1; in experiment [1] (setting [3])) were 43% and 20%, respectively.

In the case of `C/C(=C\n1c2c(c3cc(N4CCCCC4)ccc31)CN(C)CC2)c1ccncc1` [compound 445, (E)-2-methyl-8-(piperidin-1-yl)-5-(2-(pyridin-4-yl)prop-1-enyl)-2,3,4,5-tetrahydro-1H-pyrido[4,3-b]indole], the inhibition at 1 µM was found to be 1% on histamine receptor H1 and 20% in experiment [1] (setting [3]).

In the case of `C/C(=C\n1c2c(c3cc(C)ccc31)CN(C)CC2)c1ccc(C(=O)N(C)C)cc1` [compound 436], the values for the inhibition at 1 µM (on histamine receptor H1; in experiment [1] (setting [3])) were 12% and 69%, respectively.

With `CNC(=O)c1ccc(/C(C)=C/n2c3c(c4cc(C)ccc42)CN(C)CC3)cc1` [compound 435], the inhibition at 1 µM on histamine receptor H1 was found to be 11%; in experiment [1] (setting [3]) it was 71%.

In the case of `C/C(=C\n1c2c(c3cc(Cl)ccc31)CN(CCC(C)(C)O)CC2)c1ccc(F)cc1` [compound 414, (E)-4-(8-chloro-5-(2-(4-fluorophenyl)prop-1-enyl)-3,4-dihydro-1H-pyrido[4,3-b]indol-2(5H)-yl)-2-methylbutan-2-ol], the inhibition at 1 µM at histamine receptor H1 is 61%; in experiment [1] (setting [3]) it was 100%.

Regarding `CC(=O)N(C)c1ccc2c(c1)c1c(n2/C=C(\C)c2ccncc2)CCN(C)C1` [compound 439, (E)-N-methyl-N-(2-methyl-5-(2-(pyridin-4-yl)prop-1-enyl)-2,3,4,5-tetrahydro-1H-pyrido[4,3-b]indol-8-yl)acetamide], the inhibition at 1 µM at histamine receptor H1 was 9%; in experiment [1] (setting [3]), 16%.

On to `C/C(=C\n1c2c(c3cc(Cl)ccc31)CN(C)[C@H](C)C2)c1ccncc1` [compound 392, (R,E)-8-chloro-2,3-dimethyl-5-(2-(pyridin-4-yl)prop-1-enyl)-2,3,4,5-tetrahydro-1H-pyrido[4,3-b]indole], for which the inhibition at 1 µM at histamine receptor H1 amounted to 84%; in experiment [1] (setting [3]), 99%.

With `C/C(=C\n1c2c(c3cc(Cl)ccc31)CN(C)CC2)c1cncnc1` [Compound 346, (E)-8-chloro-2-methyl-5-(2-(pyrimidin-5-yl)prop-1-enyl)-2,3,4,5-tetrahydro-1H-pyrido[4,3-b]indole], the inhibition at 1 µM at histamine receptor H1 was 17%; in experiment [1] (setting [2]), 26%.

For the compound `Cc1ccc2c(c1)c1c(n2C=C(c2ccccc2)c2ccccc2)CCN(C)C1` [compound 409, 5-(2,2-diphenylvinyl)-2,8-dimethyl-2,3,4,5-tetrahydro-1H-pyrido[4,3-b]indole], the inhibition at 1 µM came to 18% at histamine receptor H1 and 54% in experiment [1] (setting [3]).

Take `C/C(=C(/C)n1c2c(c3cc(C)ccc31)CN(C)CC2)c1ccc(F)cc1` [compound 421, (E)-5-(3-(4-fluorophenyl)but-2-en-2-yl)-2,8-dimethyl-2,3,4,5-tetrahydro-1H-pyrido[4,3-b]indole]: the inhibition at 1 µM at histamine receptor H1 stood at 93%; in experiment [1] (setting [3]) it was 79%.

For the compound `Cc1ccc2c(c1)c1c(n2C#Cc2ccsc2)CCN(C)C1` [Compound No. 491, 2,8-dimethyl-5-(thiophen-3-ylethynyl)-2,3,4,5-tetrahydro-1H-pyrido[4,3-b]indole], the inhibition at 1 µM at histamine receptor H1 stood at 52%; in experiment [1] (setting [3]), 82%.

These data come from patent US8906925B2, “Pyrido[4,3-B]indoles containing rigid moieties” (Medivation Technologies, Inc., priority 2008, dated 2014).
